The conditions of data set [1]: ground 1:1 mixture with bisVCap, heated to 150-180° C., cooled to −85° C., second heating cycle.
Data set [2] in a line: Screening of bisVCap and bisVP with a range of drugs (hot stage melt, polarized optical microscopy). It is filed as physicochemical. As to conditions: for crystallinity by polarized light microscopy, drug with bisVCap: drug:bisVCap 1:1 mol ratio, ground, melted, cooled, overnight / 18 hours at room temperature. Here is the method: Control samples without lactam coformers were also prepared for comparison. The slides were then allowed to cool to room temperature. The samples were examined using polarized optical microscopy after storing them overnight and again two weeks after melting to assess their crystallinity. Polarized optical micrographs were observed.
A Linkam LTS420 heating stage attached to a Olympus XC50 microscope was used to heat the samples. Samples were placed on a glass microscope slide with a thin glass cover slide. […] Samples were then removed from the hot stage and allowed to cool. BisVCap was ground in 1:1 molar mixture with carbamazepine, carisoprodol, isoniazid and ROY. The carbamazepine/bisVCap sample was heated from room temperature to 170° C. at a rate of 10° C. min^−1, cooled at ° C. min^−1 to −40° C., then heated at 10° C. min^−1 to 165° C. The carisoprodol/bisVCap sample was heated from room temperature to 150° C. at a rate of 10° C. min^−1, cooled at ° C. min^−1 to −75° C., then heated at 10° C. min^−1 to 145° C. min^−1. The isoniazid/bisVCap sample was heated from room temperature to 175° C. at a rate of 10° C. min^−1, cooled at ° C. min^−1 to −100° C., then heated at 10° C. min^−1 to 125° C. min^−1. The ROY/bisVCap sample was heated from room temperature to 150° C. at a rate of 10° C. min^−1, cooled at ° C. min^−1 to −90° C., then heated at 10° C. min^−1 to 155° C. min^−1.

Data set [3] in a line: Dynamic vapor sorption (DVS) water uptake. It is filed as physicochemical. As to conditions: for hygroscopicity: DVS, small mass increase and lack of hysteresis; for mass increase in DVS plot: up to 90% relative humidity. On the procedure:
A significant issue with PVP as an amorphous stabilizer is its hydroscopicity, and amorphous materials are frequently hygroscopic. Dynamic vapor sorption (DVS) has been used to compare the water uptake of bisVCap and PVP. […] However, amorphous forms have more apparent solubility than crystal forms and it is possible that amorphous bisVCap could absorb much more water than the crystalline form.
DVS was performed using an SMS DVS-1 with a 10% RH step between humidity values with equilibrium achieved at 0.01% weight change before moving to the next step. Methods began at the humidity of the room at ambient which was measured by a Rotronic A/H hygrometer. The humidity was then increased to 90% RH before cycling to 0% RH, to 90% RH, to 0% RH. Samples weighing between 5-20mg were used.

Data set [4] is classed as physicochemical. Particulars: for crystallinity of ROY sample on the basis of birefringence: coformer ground 1:1 molar with ROY (PVP K12, PVCap 1:1 by mass; ROY control without coformer), melted, cooled to room temperature overnight. The source says: Compounds 3-8 and VCap were all ground using a mortar and pestle in a 1:1 molar ratio with ROY. Comparative experiments were also undertaken in the same way with PVP (K12) (1) and PVCap (2) in a 1:1 ratio by mass with ROY. The samples were then placed on a microscope slide and covered with a thin, glass cover slip and heated using a hot stage optical microscope until all material had melted. The samples were then removed from the hot stage and allowed to cool to room temperature overnight. The cooled samples were examined under a microscope fitted with cross polarizing filters and assessed for crystallinity on the basis of birefringence.
(§1) A Linkam LTS420 heating stage attached to a Olympus XC50 microscope was used to heat the samples. Samples were placed on a glass microscope slide with a thin glass cover slide. For the amorphous material screening compounds were ground together in various drug to coformer ratio using 0.05 g of coformer in each case and heated at 30° C. min^−1 until the all of the sample had melted. Samples were then removed from the hot stage and allowed to cool. BisVCap was ground in 1:1 molar mixture with carbamazepine, carisoprodol, isoniazid and ROY. The carbamazepine/bisVCap sample was heated from room temperature to 170° C. at a rate of 10° C. min^−1, cooled at ° C. min^−1 to −40° C., then heated at 10° C. min^−1 to 165° C. The carisoprodol/bisVCap sample was heated from room temperature to 150° C. at a rate of 10° C. min^−1, cooled at ° C. min^−1 to −75° C., then heated at 10° C. min^−1 to 145° C. min^−1. The isoniazid/bisVCap sample was heated from room temperature to 175° C. at a rate of 10° C. min^−1, cooled at ° C. min^−1 to −100° C., then heated at 10° C. min^−1 to 125° C. min^−1. The ROY/bisVCap sample was heated from room temperature to 150° C. at a rate of 10° C. min^−1, cooled at ° C. min^−1 to −90° C., then heated at 10° C. min^−1 to 155° C. min^−1.

Data set [5] can be described thus: Hot stage microscope experiments with increasing drug:bisVCap ratios. It is filed as physicochemical. Particulars: melted, cooled to room temperature. On the procedure: One major problem with PVP as an amorphous stabilizer is that often a large amount is required for stabilization of the amorphous phase. This often leads to very large pills or dosage forms which consist of multiple tablets. Thus further hot stage microscope and DSC experiments of bisVCap mixtures with carisoprodol, carbamazepine, isoniazid and ROY were performed with increasing drug:bisVCap ratios to determine the minimum ratio of coformer required to maintain the API in an amorphous state.
For the microscope experiments the drugs and bisVCap were ground in the desired ratio, heated until all the sample had melted then cooled back to room temperature and analyzed by polarized light microscopy.
as §1

Data set [6] is described as follows: Heat-cool-heat cycles on hot stage with polarized light microscope. It is filed as physicochemical. As to conditions: 1:1 mixture with bisVCap.
Text: The same heat-cool-heat cycles used in the DSC experiments were reproduced using a hot stage attached to a polarized light microscope for 1:1 mixtures of carisoprodol, carbamazepine, isoniazid and ROY with bisVCap.
as §1

For the compound `Cc1cccc(C)c1OCC(C)N` (stereo not drawn) [mexiletine], the “DSC behaviour of mixture with bisVCap” value in data set [1] is “sharp and overlapping endothermic peaks on heating, which arise from decomposition”. In data set [2], the “crystallinity by polarized light microscopy, drug with bisVCap” value (from here on “crystallinity … with bisVCap”) was “appear amorphous”.

As to (bis)vinylcaprolactam [bisVCap], the hygroscopicity result in data set [3] is given as “not hydroscopic”. Moreover, in data set [4], the “stability of coamorphous phase with ROY on storage” value is reported as “stable for prolonged periods” and the “crystallinity of ROY sample on the basis of birefringence” value is on record as “gives a coamorphous phase with ROY”.

As for `CC(C)Cc1ccc(C(C)C(=O)O)cc1` (stereo not drawn) [ibuprofen], the “DSC behaviour of mixture with bisVCap” value in data set [1] is “sharp and overlapping endothermic peaks on heating, which arise from decomposition”. Besides, the “crystallinity … with bisVCap” value in data set [2] is “appear amorphous”.

For “(bis)vinylcaprolactam [crystalline bisVCap]”, in data set [3], the hygroscopicity result is reported as “not significantly hygroscopic” and the “mass increase in DVS plot” value was determined as 0.35%.

In the case of `NC(=O)N1c2ccccc2C=Cc2ccccc21` [carbamazepine], the “visible crystallization by polarized light microscopy” value (“visible crystallization” for short) is reported as “no visible crystallization” in data set [5] (2:1 drug:bisVCap molar ratio) and “formed crystals overnight” in data set [5] (3:1 drug:bisVCap ratio). Moreover, the “coamorphous phase formation in hot stage heat-cool-heat cycle” value (“coamorphous phase formation” for short) in data set [6] is given as “confirm coamorphous phase formation”. The “DSC behaviour of mixture with bisVCap” value in data set [1] is listed as “lacking features assignable to decomposition, recrystallization or melting endotherms in the second heating cycle”. Further, the “crystallinity … with bisVCap” value in data set [2] is on record as “appear amorphous”.

Take `Cn1c(=O)c2c(ncn2C)n(C)c1=O` [caffeine]: the “crystallinity … with bisVCap” value in data set [2] was “crystallized overnight”.

On to `CCCCC(=O)N(Cc1ccc(-c2ccccc2-c2nnn[nH]2)cc1)[C@H](C(=O)O)C(C)C` [Valsartan], for which, in data set [2] (control sample without lactam coformer, melted and cooled to room temperature), the “crystallinity by polarized light microscopy, drug on its own” value is “remains amorphous”.

As for `NNC(=O)c1ccncc1` [isoniazid], the “visible crystallization” value in data set [5] (2:1 drug:bisVCap molar ratio) is “no visible crystallization”; in data set [5] (3:1 drug:bisVCap ratio), “formed crystals overnight”. Also, the “coamorphous phase formation” value in data set [6] is “confirm coamorphous phase formation”. For the same compound, the “DSC behaviour of mixture with bisVCap” value in data set [1] is listed as “lacking features assignable to decomposition, recrystallization or melting endotherms in the second heating cycle”. The “crystallinity … with bisVCap” value in data set [2] is “appear amorphous”.

As for `Cc1cc(C#N)c(Nc2ccccc2[N+](=O)[O-])s1` [ROY, 5-methyl-2-[(2-nitrophenyl)amino]-3-thiophenecarbonitrile], the “visible crystallization” value in data set [5] (2:1 drug:bisVCap molar ratio) is reported as “no visible crystallization”; in data set [5] (3:1 drug:bisVCap ratio) it was “formed crystals overnight”. Also, the “coamorphous phase formation” value in data set [6] is given as “confirm coamorphous phase formation”. In addition, the “DSC behaviour of mixture with bisVCap” value in data set [1] is reported as “lacking features assignable to decomposition, recrystallization or melting endotherms in the second heating cycle”. The “crystallinity of ROY sample on the basis of birefringence” value in data set [4] is recorded as “readily crystallizes”. Also, the “time to ROY crystallization upon cooling” value in data set [4] (melt of ROY alone or 1:1 molar with coformer, cooling to room temperature) is reported as “within a few minutes”.

`Cc1c(Cl)cccc1Nc1ccccc1C(=O)O` [tolfenamic acid]: the “DSC behaviour of mixture with bisVCap” value in data set [1] is “sharp and overlapping endothermic peaks on heating, which arise from decomposition”. Further, the “crystallinity … with bisVCap” value in data set [2] is listed as “appear amorphous”.

“(bis)vinylcaprolactam [Amorphous bisVCap]”: in data set [3], the hygroscopicity entry was “not significantly hygroscopic” and the “mass increase in DVS plot” value is recorded as 1.2%.

For the compound `CN(C)C(=N)N=C(N)N` [metformin], in data set [2], the “crystallinity … with bisVCap” value is recorded as “crystallized overnight”.

As to `NCCc1ccc(O)c(O)c1` [dopamine], the “crystallinity … with bisVCap” value in data set [2] is reported as “appear amorphous”.

Turning to `CCCC(C)(COC(N)=O)COC(=O)NC(C)C` (stereo not drawn) [carisoprodol], the “visible crystallization” value in data set [5] (2:1 drug:bisVCap molar ratio) is “no visible crystallization”; in data set [5] (3:1 drug:bisVCap ratio), “did not show any visible crystallization”; in data set [5] (4:1 drug:bisVCap ratio) it was “formed crystals overnight”. Further, in data set [6], the “coamorphous phase formation” value is reported as “confirm coamorphous phase formation”. In addition, the “DSC behaviour of mixture with bisVCap” value in data set [1] is “lacking features assignable to decomposition, recrystallization or melting endotherms in the second heating cycle”. For the same compound, the “crystallinity … with bisVCap” value in data set [2] is listed as “appear amorphous”.

Regarding `CCc1cc(C(N)=S)ccn1` [ethionamide], the “DSC behaviour of mixture with bisVCap” value in data set [1] was “sharp and overlapping endothermic peaks on heating, which arise from decomposition”. In data set [2], the “crystallinity … with bisVCap” value was “appear amorphous”.

As for `CCOC(=O)c1ccc(N)cc1` [benzocaine], the “crystallinity … with bisVCap” value in data set [2] is “crystallized overnight”.

The record behind these values is patent US11304955B2, “Small-molecule povidone analogs in coamorphous pharmaceutical phases” (ISP INVESTMENTS LLC, priority 2017, dated 2022).
